Measurements published in US8492371B2, “Compounds as cannabinoid receptor ligands” (priority 2009, dated 2013).
pKi: −log10 of the molar value. Read-outs that look alike come from different tables or passages of the source.

What was measured:
human CB2 receptors = biological target: T1, human CB2 receptors (Homo sapiens, UniProt P34972); assay: Human CB2 radioligand binding assay ([3H]CP-55,940 competition)
T1 construct: expressed in transfected cells; host or cells: HEK293
Method: The CB1 and CB2 radioligand binding assays described herein are utilized to determine the selectivity of compounds of the present invention for binding to CB2 relative to CB1 receptors.
(§1) HEK293 cells stably expressing human CB2 receptors were grown until a confluent monolayer was formed. Briefly, the cells were harvested and homogenized in TE buffer (50 mM Tris-HCl, 1 mM MgCl2, and 1 mM EDTA) using a polytron for 2×10 second bursts in the presence of protease inhibitors, followed by centrifugation at 45,000×g for 20 minutes. The final membrane pellet was re-homogenized in storage buffer (50 mM Tris-HCl, 1 mM MgCl2, and 1 mM EDTA and 10% sucrose) and frozen at −78° C. until used. Saturation binding reactions were initiated by the addition of membrane preparation (protein concentration of 5 μg/well for human CB2) into wells of a deep well plate containing ([^3H]CP-55,940 (120 Ci/mmol, a nonselective CB agonist commercially available from Tocris) in assay buffer (50 mM Tris, 2.5 mM EDTA, 5 mM MgCl2, and 0.5 mg/mL fatty acid free BSA, pH 7.4). After 90 min incubation at 30° C., binding reaction was terminated by the addition of 300 μL/well of cold assay buffer followed by rapid vacuum filtration through a UniFilter-96 GF/C filter plates (pre-soaked in 1 mg/mL BSA for 2 hours). The bound activity was counted in a TopCount using Microscint-20. Saturation experiments were conducted with twelve concentrations of [^3H]CP-55,940 ranging from 0.01 to 8 nM. Competition experiments were conducted with 0.5 nM [^3H]CP-55,940 and five concentrations of displacing ligands selected from the range of 0.01 nM to 10 μM. The addition of 10 μM unlabeled CP-55,940 (Tocris, Ellisville, Mo.) was used to assess nonspecific binding.

rat CB2 receptors = biological target: T2, rat CB2 receptors (Rattus norvegicus, UniProt Q9QZN9); assay: Rat CB2 radioligand binding assay ([3H]CP-55,940 competition)
T2 construct: expressed in transfected cells; host or cells: HEK293
T2 sequence (Q9QZN9 1-360): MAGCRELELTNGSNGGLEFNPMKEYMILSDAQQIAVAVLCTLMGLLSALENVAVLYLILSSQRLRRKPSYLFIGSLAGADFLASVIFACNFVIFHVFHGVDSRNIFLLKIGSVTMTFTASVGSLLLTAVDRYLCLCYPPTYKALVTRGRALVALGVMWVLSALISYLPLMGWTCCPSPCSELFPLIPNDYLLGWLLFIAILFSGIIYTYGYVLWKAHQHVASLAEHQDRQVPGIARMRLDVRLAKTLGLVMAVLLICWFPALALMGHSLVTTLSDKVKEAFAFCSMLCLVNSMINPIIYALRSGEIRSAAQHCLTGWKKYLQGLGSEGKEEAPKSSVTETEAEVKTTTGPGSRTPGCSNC
Method: as §1, with “expressing rat” for “expressing human”, “of 20” for “of 5”, “for rat” for “for human”, “containing [^3H]CP-55,940” for “containing ([^3H]CP-55,940”, “After 45” for “After 90”, “[…]” for “10 μM.”

T1 sequence (P34972 whole entry): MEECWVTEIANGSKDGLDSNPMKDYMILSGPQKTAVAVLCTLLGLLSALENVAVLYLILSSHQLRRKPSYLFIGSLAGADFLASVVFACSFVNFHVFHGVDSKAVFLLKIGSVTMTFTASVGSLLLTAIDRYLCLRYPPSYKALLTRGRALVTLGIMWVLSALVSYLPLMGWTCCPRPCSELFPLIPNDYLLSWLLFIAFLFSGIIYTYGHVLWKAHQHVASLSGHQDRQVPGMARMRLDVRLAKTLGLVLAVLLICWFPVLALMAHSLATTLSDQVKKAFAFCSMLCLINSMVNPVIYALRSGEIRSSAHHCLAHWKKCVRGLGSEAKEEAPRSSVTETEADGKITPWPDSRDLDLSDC

| SMILES | pKi (human CB2 receptors) | pKi (rat CB2 receptors) | pKi (human CB2 receptors; HEK293 membranes, 0.5 nM [3H]CP-55,940, read-out: human CB2 Ki) | pKi (rat CB2 receptors; HEK293 membranes, 0.5 nM [3H]CP-55,940, read-out: rat CB2 Ki) |
| --- | --- | --- | --- | --- |
| Cn1c(C(C)(C)C)c/c(=N\C(=O)c2cc(C(F)(F)F)ccc2OCC(F)(F)F)n1C[C@H]1CCCO1 [Example 21, N-{(3E)-5-tert-butyl-1-methyl-2-[(2R)-tetrahydrofuran-2-ylmethyl]-1,2-dihydro-3H-pyrazol-3-ylidene}-2-(2,2,2-trifluoroethoxy)-5-(trifluoromethyl)benzamide] | 7.20 | 7.66 | – | – |
| Cn1c(C(C)(C)C)c/c(=N\C(=O)c2cc(C(F)(F)F)ccc2OCCF)n1C[C@H]1CCCO1 [Example 22, N-{(3E)-5-tert-butyl-1-methyl-2-[(2R)-tetrahydrofuran-2-ylmethyl]-1,2-dihydro-3H-pyrazol-3-ylidene}-2-(2-fluoroethoxy)-5-(trifluoromethyl)benzamide] | 7.62 | 8.00 | – | – |
| COCCOc1ccc(C(F)(F)F)cc1C(=O)/N=c1\cc(C(C)(C)C)n(C)n1C[C@H]1CCCO1 [Example 23, N-{(3E)-5-tert-butyl-1-methyl-2-[(2R)-tetrahydrofuran-2-ylmethyl]-1,2-dihydro-3H-pyrazol-3-ylidene}-2-(2-methoxyethoxy)-5-(trifluoromethyl)benzamide] | 7.52 | 7.72 | – | – |
| Cn1c(C(C)(C)C)c/c(=N\C(=O)c2cc(C(F)(F)F)ccc2O)n1C[C@H]1CCCO1 [Example 24, N-{(3E)-5-tert-butyl-1-methyl-2-[(2R)-tetrahydrofuran-2-ylmethyl]-1,2-dihydro-3H-pyrazol-3-ylidene}-2-hydroxy-5-(trifluoromethyl)benzamide] | – | 7.54 | 6.59 | – |
| Cn1c(C(C)(C)C)c/c(=N\C(=O)c2cc(C(F)(F)F)ccc2OC(C)(C)C)n1C[C@H]1CCCO1 [Example 25, 2-tert-butoxy-N-{(3E)-5-tert-butyl-1-methyl-2-[(2R)-tetrahydrofuran-2-ylmethyl]-1,2-dihydro-3H-pyrazol-3-ylidene}-5-(trifluoromethyl)benzamide] | 7.00 | 7.40 | – | – |
| CO[C@@H](C)COc1ccc(C(F)(F)F)cc1C(=O)/N=c1\cc(C(C)(C)C)n(C)n1C[C@H]1CCCO1 [Example 28, N-{(3E)-5-tert-butyl-1-methyl-2-[(2R)-tetrahydrofuran-2-ylmethyl]-1,2-dihydro-3H-pyrazol-3-ylidene}-2-{[(2S)-2-methoxypropyl]oxy}-5-(trifluoromethyl)benzamide] | 7.00 | 7.36 | – | – |
| CCOCCCOc1ccc(C(F)(F)F)cc1C(=O)/N=c1\cc(C(C)(C)C)n(C)n1C[C@H]1CCCO1 [Example 29, N-{(3E)-5-tert-butyl-1-methyl-2-[(2R)-tetrahydrofuran-2-ylmethyl]-1,2-dihydro-3H-pyrazol-3-ylidene}-2-(3-ethoxypropoxy)-5-(trifluoromethyl)benzamide] | 8.32 | 7.85 | – | – |
| COCCCOc1ccc(C(F)(F)F)cc1C(=O)/N=c1\cc(C(C)(C)C)n(C)n1C[C@H]1CCCO1 [Example 30, N-{(3E)-5-tert-butyl-1-methyl-2-[(2R)-tetrahydrofuran-2-ylmethyl]-1,2-dihydro-3H-pyrazol-3-ylidene}-2-(3-methoxypropoxy)-5-(trifluoromethyl)benzamide] | 8.42 | 7.96 | – | – |
| CCOCCOc1ccc(C(F)(F)F)cc1C(=O)/N=c1\cc(C(C)(C)C)n(C)n1C[C@H]1CCCO1 [Example 31, N-{(3E)-5-tert-butyl-1-methyl-2-[(2R)-tetrahydrofuran-2-ylmethyl]-1,2-dihydro-3H-pyrazol-3-ylidene}-2-(2-ethoxyethoxy)-5-(trifluoromethyl)benzamide] | 7.96 | 8.21 | – | – |
| COc1ccc(C(F)(F)F)cc1C(=O)/N=c1\c2c(n(C)n1C[C@H]1CCCO1)CCC2 [Example 32, 2-methoxy-N-[(3E)-1-methyl-2-[(2R)-tetrahydrofuran-2-ylmethyl]-1,4,5,6-tetrahydrocyclopenta[c]pyrazol-3(2H)-ylidene]-5-(trifluoromethyl)benzamide] | 6.58 | – | – | 6.94 |
| COc1ccc(C(F)(F)F)cc1C(=O)/N=c1\cc(C2(C)CC2)n(C)n1C[C@H]1CCCO1 [Example 33, 2-methoxy-N-{(3E)-1-methyl-5-(1-methylcyclopropyl)-2-[(2R)-tetrahydrofuran-2-ylmethyl]-1,2-dihydro-3H-pyrazol-3-ylidene}-5-(trifluoromethyl)benzamide] | 7.09 | 7.85 | – | – |
| COCCNc1ccc(C(F)(F)F)cc1C(=O)/N=c1\cc(C(C)(C)C)n(C)n1C[C@H]1CCCO1 [Example 34] | 7.96 | 8.26 | – | – |
| Cn1c(C(C)(C)C)c/c(=N\C(=O)c2cc(C(F)(F)F)ccc2OCC(F)F)n1C[C@H]1CCCO1 [Example 35, N-{(3E)-5-tert-butyl-1-methyl-2-[(2R)-tetrahydrofuran-2-ylmethyl]-1,2-dihydro-3H-pyrazol-3-ylidene}-2-(2,2-difluoroethoxy)-5-(trifluoromethyl)benzamide] | 7.77 | 8.26 | – | – |
| Cn1c(C(C)(C)C)c/c(=N\C(=O)c2cc(C(F)(F)F)ccc2NCCF)n1C[C@H]1CCCO1 [Example 39, N-{(3E)-5-tert-butyl-1-methyl-2-[(2R)-tetrahydrofuran-2-ylmethyl]-1,2-dihydro-3H-pyrazol-3-ylidene}-2-[(2-fluoroethyl)amino]-5-(trifluoromethyl)benzamide] | 8.05 | 8.42 | – | – |
| CC(F)COc1ccc(C(F)(F)F)cc1C(=O)/N=c1\cc(C(C)(C)C)n(C)n1C[C@H]1CCCO1 (stereo partly drawn) [Example 40, N-{(3E)-5-tert-butyl-1-methyl-2-[(2R)-tetrahydrofuran-2-ylmethyl]-1,2-dihydro-3H-pyrazol-3-ylidene}-2-(2-fluoropropoxy)-5-(trifluoromethyl)benzamide] | 7.49 | 7.66 | – | – |
| C[C@@H](F)COc1ccc(C(F)(F)F)cc1C(=O)/N=c1\cc(C(C)(C)C)n(C)n1C[C@H]1CCCO1 [Example 41, N-{(3E)-5-tert-butyl-1-methyl-2-[(2R)-tetrahydrofuran-2-ylmethyl]-1,2-dihydro-3H-pyrazol-3-ylidene}-2-{[(2R)-2-fluoropropyl]oxy}-5-(trifluoromethyl)benzamide] | 6.88 | 7.74 | – | – |
| CC(CF)Oc1ccc(C(F)(F)F)cc1C(=O)/N=c1\cc(C(C)(C)C)n(C)n1C[C@H]1CCCO1 (stereo partly drawn) [Example 42, N-{(3E)-5-tert-butyl-1-methyl-2-[(2R)-tetrahydrofuran-2-ylmethyl]-1,2-dihydro-3H-pyrazol-3-ylidene}-2-(2-fluoro-1-methylethoxy)-5-(trifluoromethyl)benzamide] | 6.86 | 7.52 | – | – |
| Cn1c(C(C)(C)C)c/c(=N\C(=O)c2cc(C(F)(F)F)ccc2OCCC(C)(C)F)n1C[C@H]1CCCO1 [Example 43, N-{(3E)-5-tert-butyl-1-methyl-2-[(2R)-tetrahydrofuran-2-ylmethyl]-1,2-dihydro-3H-pyrazol-3-ylidene}-2-(3-fluoro-3-methylbutoxy)-5-(trifluoromethyl)benzamide] | 7.72 | 8.00 | – | – |
